One test has as its system female mice. Kind of test: ovulation / corpus luteum formation in hormone-stimulated mice. Conditions: 50 mg/kg i.p. twice per day. It counts as in vivo, mouse. The protocol:
In these experiments, two groups of female mice (n=6 per group) were injected i.p. (50 μL per injection) twice per day with either vehicle control (saline containing 7.5% DMSO) or vehicle containing compound 15 (50 mg/kg) at the days indicated in FIG. 10. The mice were injected with hormones to stimulate ovulation. FIG. 10 is a schematic showing the injection of hormones into mice to cause follicle maturation and injection of compound 15.

Test [1] concerns Panc-1 human pancreatic cancer cells. Kind of test: cell death, trypan blue exclusion count. The test is classed as cell-based. To be noted: 24 hours. Here is the method:
(§1) In these experiments, Panc-1 human pancreatic cancer cells were maintained in Dulbecco's minimum essential medium supplemented with 10% fetal calf serum at 37° C. in 5% CO2 in air. All culture reagents were purchased from Invitrogen (Burlington, ON). Panc-1 cells (ATCC CRL-1469) were plated at 20,000 cells per well of a 4-well tissue culture slide (NalgeNunc, Naperville, Ill.). After 24 hours of culture, cells were treated for 24 hours with medium containing varying concentrations of compounds 15 and 16 dissolved in dimethylsulfoxide (DMSO; final concentration of 1% DMSO in the medium), or 1% DMSO alone in the medium and then fixed with 4% paraformaldehyde dissolved in phosphate buffered saline and stained with hematoxylin. Disruption of cell adhesion was determined visually within 24 hours, by observing retraction of the cells from one another.
In order to determine the effect of the compounds on cell death, the medium was aspirated from the treated and untreated cultures and the non-adherent cells collected by centrifugation (1000 rpm for 5 min). The cells were resuspended in phosphate buffered saline and combined with trypan blue (Sigma). Cells were then put in a hemocytometer and the number of cells that excluded the trypan blue counted using a microscope to determine the number of live cells.

For test [2], the system named is classical cadherin-expressing cells. The experiment in a line: cell adhesion assay, classical cadherin mediated cell adhesion. It counts as cell-based. To be noted: 1 micromolar; determined visually within 24 hours. Here is the method: In these experiments, classical cadherin-expressing cells are plated under standard conditions that, in the absence of cell adhesion antagonist, permit cell adhesion. Disruption of cell adhesion is determined visually within 24 hours, by observing retraction of the cells from one another.

Test [3] concerns human fibroblast-like synoviocytes (FLS). The experiment in a line: fibroblast-like synoviocyte cell adhesion. The test is classed as cell-based. To be noted: 24 hours treatment. Here is the method:
In these experiments, human fibroblast-like synoviocytes (FLS) (ScienCell Research Laboratories (Carlsbad, Calif.; Cat #4700) were maintained in complete Synoviocyte media (ScienCell Research Laboratories Carlsbad, Calif. Cat #4701) at 37° C. in 5% CO2 in air. FLS cells were plated at 1.5×10^4 cells per well of a 4-well tissue culture slide (NalgeNunc, Naperville, Ill.). After 24 hours of culture, cells were treated for 24 hours with medium containing varying concentrations of compounds 15 dissolved in dimethylsulfoxide (DMSO; final concentration of 1% DMSO in the medium), or 1% DMSO alone in the medium. The cells were then fixed with 4% paraformaldehyde dissolved in phosphate buffered saline and stained with hematoxylin. Disruption of cell adhesion was determined visually within 24 hours, by observing retraction of the cells from one another.

Test [4] concerns Panc-1 human pancreatic cancer cells. The experiment in a line: cancer cell adhesion, visual retraction of cells. To be noted: 24 hours, light microscopy. The test is classed as cell-based. The protocol: as §1
The subject of test [5] is 5TGM1 mouse MM plasma cells. Kind of test: C57BL/KaLwRij murine model of Multiple Myeloma, tumor burden. The test is classed as in vivo. Conditions: 50 mg/kg/day i.p. for 5 days; assessed at days 14, 21 and 28. The protocol:
In these experiments, 5TGM1 mouse MM plasma cells (expressing a dual GFP and luciferase reporter construct (Noll Neoplasia 2014; Cheong 2015)) were maintained in Iscove's modified Dulbecco's medium (IMDM) with 20% fetal calf serum (FCS; Thermo Fisher Scientific, Waltham, Mass., USA) and supplements.
C57Bl/KaLwRij mice (aged 6-8 weeks) were used for all in vivo studies. For MM tumor studies, mice were inoculated with 5×10^5 5 TGM1 cells in 100 μl phosphate buffered saline by intravenous injection (i.v.) via the tail vein. Total body tumor burden was assessed at days 14, 21 and 28 using the Xenogen IVIS, as previously described (Mrozik, K. M., et al., 2015, Br. J. Haematol. 171, 387-399.). All animals used for therapy studies were randomized by age, sex and, where appropriate, tumor burden. Compound 15 was dissolved at a concentration of 10 mg/ml in saline containing 40% 2-hydroxyproprol-β-cyclodextrin. Either compound 15 (50 mg/kg/day) (N=8) or vehicle (40% 2-hydroxyproprol-β-cyclodextrin in saline) (N=7) alone was administered to mice i.p. commencing 15 minutes prior to 5TGM1 cell injection for 5 days. […] Compound 15 is therefore effective for treatment of MM.

Test [6] relates to human cancer-associated fibroblast (CAF010415). Kind of test: cancer-associated fibroblast viability, CELLTITER GLO. Conditions: in vitro; measured after 24 h and 48 h. It counts as cell-based. The protocol: In this study, CAFs were isolated as described by Orr et al, (On, B., et al., Oncogene, 31, 1130-1142, 2012). The cells were grown in Dulbecco's modified Eagle medium (Multicell) with 10% fetal bovine serum. CAFs are human primary fibroblasts, grown from patient prostate tumor samples. These cells are not an established cell line, nor are they immortalized, and at some point they will senesce.
In these experiments, cells were seeded in a 96-well plate (Corning) (3,000 cells/well). The next day, the drug was added at the indicated concentration (FIG. 8). After 24 h and 48 h cell viability was measured using CELLTITER GLO® (Promega, Madison, Wis.) according to the manufacturer's protocol. All assays were repeated at least 3 times in triplicate each time. The results are depicted in FIG. 8 as SEM. […] The N-cadherin antagonist compound 15 thus decreases the viability of human pancreatic cancer (PC) cells and CAFs. These observations indicate that N-cadherin antagonists can be used to treat PC.
On the technique in general: In ATP-based viability assays light output follows the ATP content of the culture.

The subject of a further test is Myeloma cells MM.1S. The experiment in a line: multiple myeloma cell viability, high content screening of live cells. Conditions: 24 h post-treatment. It counts as cell-based. The protocol: Myeloma cells MM.1S (American Type Culture Collection, Manassas, Va., USA) were cultured in RPMI-1640 medium supplemented with 10% fetal bovine serum (Thermo Fisher Scientific, Waltham, Mass., USA), 100 U/mL of penicillin, and […] of streptomycin. The cells were grown at 37° C. in a humidified incubator with 5% CO2.
In these experiments, MM.1S cells were pre-labeled with CellTrace Violate (Thermo Fisher Scientific), plated on 96-well plates (1.5×10^5 cells/well) and treated with varying concentrations of compound 15 (1-100 μM) or DMSO (vehicle control). High content screening (CellInsight CX5, Thermo Fisher Scientific) was utilized to quantify the number of live cells (i.e. calcein AM+ cells) 24 h post-treatment. FIG. 13 presents photomicrographs (upper panel) and quantitative data (lower panel) of cells treated with compound 15.

With `COc1ccc(OC[C@@H](O)CNC2CCN(C[C@H](O)COc3ccc(Cl)c(Cl)c3)CC2)cc1` [Compound 15, (S)-1-(3,4-Dichlorophenoxy)-3-(4-((S)-2-hydroxy-3-(4-methoxyphenoxy)propylamino)piperidin-1-yl)propan-2-ol], the “corpus luteum formation (luteinized CL-like structures in ovaries)” value in the test on female mice is given as “fewer clearly luteinized CL-like structures”. Also, the ovulation entry with female mice is given as “inhibits ovulation”. In addition, the “cell death in comparison to the control” value in test [1] (10 μM) and in test [1] (100 μM) was “caused cell death” each time. Moreover, the “disruption of cell adhesion (retraction of the cells from one another)” value in test [2] is on record as “disruption of cell adhesion is observed”. The “concentration range in which effects on FLS cells (disruption of cell adhesion) can be seen” value in test [3] fell in the range of 5 to 50 µM. Besides, the “disruption of cell adhesion” value is recorded as “not disrupted” in test [4] (0.1 μM), “disrupted cell adhesion” in test [4] (1 μM), “disrupted cell adhesion” in test [4] (10 μM) and “disrupted cell adhesion” in test [4] (100 μM). The “total body tumour burden” value in test [5] was “caused a decrease in tumour burden”. In test [6], the cell viability entry is given as “decreases human cancer-associated fibroblast (CAF010415) viability”. In addition, the “number of live cells (calcein AM+) on the substratum” value with Myeloma cells MM.1S (10 μM) and in the test on Myeloma cells MM.1S (100 μM) was “caused a decrease in the number of live cells” throughout.

Source of the values: patent publication US10647672B2, “Modulators of cell adhesion, methods and compositions therefor” (Zonula Incorporated, priority 2017, dated 2020).
